Data published in patent US8940896B2, “Tetra-cyclic carboline derivatives useful in the inhibition of angiogenesis” (PTC Therapeutics, Inc., priority 2004, dated 2015).

The molecules below were run on VEGF (assay: Hypoxia-inducible endogenous VEGF expression, VEGF ELISA assay). Conditions: HeLa cells, hypoxic conditions (1% O2, 5% CO2), VEGF in conditioned media.
Format: cell-based
Protocol: The ability of the compounds of the invention to modulate hypoxia-inducible endogenous VEGF expression may be analyzed as follows. VEGF protein levels may be monitored by an ELISA assay (R&D Systems). Briefly, HeLa cells may be cultured for 24-48 hours under hypoxic conditions (1% O2, 5% CO2, balanced with nitrogen) in the presence or absence of a compound of the invention. The conditioned media may then be assayed by ELISA, and the concentration of VEGF calculated from the standard ELISA curve of each assay.
A dose-response analysis may be performed using the ELISA assay and conditions described above. The conditions for the dose-response ELISA are analogous to those described above. A series of, e.g., seven different concentrations may be analyzed. In parallel, a dose-response cytotoxicity assay may be performed using CellTiter Glo (Promega) under the same conditions as the ELISA to ensure that the inhibition of VEGF expression was not due to the cytotoxicity. Dose-response curves may be plotted using percentage inhibition versus concentration of the compound, and EC50 and CC50 values may be generated for each compound with the maximal inhibition set as 100% and the minimal inhibition as 0%.

EC50	SMILES
> 1 µM	C=CCN1C(=O)C2Cc3c([nH]c4ccccc34)C(c3ccccc3OC)N2C1=S (centres unmarked) [Compound 85]
< 0.008 µM	COCCOc1ccc(C2c3[nH]c4ccc(Br)cc4c3CC3C(=O)N(C4CCCCC4)C(=S)N32)cc1 (centres unmarked) [Compound 117]

Same assay, conditions: Homo sapiens, HeLa, HeLa cells, hypoxic conditions (1% O2, 5% CO2), VEGF in conditioned media

EC50	SMILES
> 1 µM	CCN1C(=O)C2Cc3c([nH]c4ccccc34)C(c3cc(OC)c(OC)c(OC)c3)N2C1=S (centres unmarked) [Compound 64]
> 1 µM	CN1C(=O)C2Cc3c([nH]c4ccccc34)C(c3cccc(F)c3)N2C1=S (centres unmarked) [Compound 65]
> 1 µM	CCN1C(=O)C2Cc3c([nH]c4ccccc34)C(c3ccc(OC)cc3)N2C1=O (centres unmarked) [Compound 66]
> 1 µM	C=CCN1C(=O)C2Cc3c([nH]c4ccccc34)C(c3cccc(Cl)c3)N2C1=S (centres unmarked) [Compound 67]
> 1 µM	CC(C)N1C(=O)C2Cc3c([nH]c4ccccc34)C(c3cccc(Cl)c3)N2C1=S (centres unmarked) [Compound 68]
> 1 µM	COc1ccc(C2c3[nH]c4ccccc4c3CC3C(=O)N(C(C)(C)C)C(=S)N32)cc1 (centres unmarked) [Compound 70]
> 1 µM	COc1cc(C2c3[nH]c4ccccc4c3CC3C(=O)N(C)C(=S)N32)cc(OC)c1O (centres unmarked) [Compound 71]
> 1 µM	O=C1C2Cc3c([nH]c4ccccc34)C(c3ccccc3)N2C(=O)N1C1CCCCC1 (centres unmarked) [Compound 72]
> 1 µM	COc1ccc(C2c3[nH]c4ccccc4c3CC3C(=O)N(C)C(=S)N32)c(OC)c1OC (centres unmarked) [Compound 73]
> 1 µM	COc1ccc(C2c3[nH]c4ccccc4c3CC3C(=O)N(c4ccccc4C(C)C)C(=S)N32)cc1 (centres unmarked) [Compound 74]
> 1 µM	CN1C(=O)C2Cc3c([nH]c4ccccc34)C(c3cccc(Cl)c3Cl)N2C1=S (centres unmarked) [Compound 75]
> 1 µM	COc1ccccc1C1c2[nH]c3ccccc3c2CC2C(=O)N(C)C(=S)N21 (centres unmarked) [Compound 76]
> 1 µM	C=CCN1C(=O)C2Cc3c([nH]c4ccccc34)C(c3ccc(O)cc3)N2C1=S (centres unmarked) [Compound 77]
> 1 µM	COc1ccc(C2c3[nH]c4ccccc4c3CC3C(=O)N(c4ccc(OC)cc4C)C(=S)N32)cc1 (centres unmarked) [Compound 78]
> 1 µM	COc1ccc(C2c3[nH]c4ccccc4c3CC3C(=O)N(CCc4ccccc4)C(=S)N32)cc1 (centres unmarked) [Compound 79]
> 1 µM	COc1ccccc1C1c2[nH]c3ccccc3c2CC2C(=O)N(C(C)C)C(=S)N21 (centres unmarked) [Compound 86]
> 1 µM	COc1ccccc1C1c2[nH]c3ccccc3c2CC2C(=O)N(C3CCCCC3)C(=S)N21 (centres unmarked) [Compound 87]
> 1 µM	COc1ccccc1C1c2[nH]c3ccccc3c2CC2C(=O)N(c3ccccc3)C(=S)N21 (centres unmarked) [Compound 88]
> 1 µM	COc1ccccc1C1c2[nH]c3ccccc3c2CC2C(=O)N(c3ccccc3C)C(=S)N21 (centres unmarked) [Compound 89]
> 1 µM	COc1ccccc1C1c2[nH]c3ccccc3c2CC2C(=O)N(c3cccc(C)c3)C(=S)N21 (centres unmarked) [Compound 90]
> 1 µM	COc1ccccc1C1c2[nH]c3ccccc3c2CC2C(=O)N(c3ccc(C)cc3)C(=S)N21 (centres unmarked) [Compound 91]
> 1 µM	COc1ccccc1C1c2[nH]c3ccccc3c2CC2C(=O)N(c3cccc(F)c3)C(=S)N21 (centres unmarked) [Compound 92]

EC50	SMILES
> 1 µM	COc1ccccc1C1c2[nH]c3ccccc3c2CC2C(=O)N(Cc3ccccc3)C(=S)N21 (centres unmarked) [Compound 93]
> 1 µM	COc1ccccc1C1c2[nH]c3ccccc3c2CC2C(=O)N(CCc3ccccc3)C(=S)N21 (centres unmarked) [Compound 94]
< 0.008 µM	CCC(C)N1C(=O)C2Cc3c([nH]c4ccc(Br)cc34)C(c3ccc(C(C)C)cc3)N2C1=S (centres unmarked) [Compound 95]
< 0.008 µM	Cc1ccc(N2C(=O)C3Cc4c([nH]c5ccc(Br)cc45)C(c4ccc(C(C)C)cc4)N3C2=S)cc1 (centres unmarked) [Compound 96]
< 0.008 µM	CC(C)c1ccc(C2c3[nH]c4ccc(Br)cc4c3CC3C(=O)N(C4CCCCC4)C(=S)N32)cc1 (centres unmarked) [Compound 97]
< 0.008 µM	CCCCCN1C(=O)C2Cc3c([nH]c4ccc(Br)cc34)C(c3ccc(C(C)C)cc3)N2C1=S (centres unmarked) [Compound 98]
< 0.008 µM	COc1ccc(C2c3[nH]c4ccc(Br)cc4c3CC3C(=O)N(c4cccnc4)C(=S)N32)cc1 (centres unmarked) [Compound 99]
0.008 to 0.04 µM	CN1C(=O)C2Cc3c([nH]c4ccc(Br)cc34)C(c3ccc(OCCN4CCOCC4)cc3)N2C1=S (centres unmarked) [Compound 100]
< 0.008 µM	CCN1C(=O)C2Cc3c([nH]c4ccc(Br)cc34)C(c3ccc(OCCN4CCOCC4)cc3)N2C1=S (centres unmarked) [Compound 101]
0.008 to 0.04 µM	CCCN1C(=O)C2Cc3c([nH]c4ccc(Br)cc34)C(c3ccc(OCCN4CCOCC4)cc3)N2C1=S (centres unmarked) [Compound 102]
< 0.008 µM	CC(C)N1C(=O)C2Cc3c([nH]c4ccc(Br)cc34)C(c3ccc(OCCN4CCOCC4)cc3)N2C1=S (centres unmarked) [Compound 103]
< 0.008 µM	O=C1C2Cc3c([nH]c4ccc(Br)cc34)C(c3ccc(OCCN4CCOCC4)cc3)N2C(=S)N1C1CCCC1 (centres unmarked) [Compound 104]
0.008 to 0.04 µM	COCCCN1C(=O)C2Cc3c([nH]c4ccc(Br)cc34)C(c3ccc(OCCN4CCOCC4)cc3)N2C1=S (centres unmarked) [Compound 105]
0.04 to 0.2 µM	O=C1C2Cc3c([nH]c4ccc(Br)cc34)C(c3ccc(OCCN4CCOCC4)cc3)N2C(=S)N1CC1CCCO1 (centres unmarked) [Compound 106]
< 0.008 µM	COCCOc1ccc(C2c3[nH]c4ccc(Cl)cc4c3CC3C(=O)N(C)C(=S)N32)cc1 (centres unmarked) [Compound 107]
0.008 to 0.04 µM	COCCOc1ccc(C2c3[nH]c4ccc(Cl)cc4c3CC3C(=O)N(C(C)C)C(=S)N32)cc1 (centres unmarked) [Compound 108]
0.008 to 0.04 µM	COCCOc1ccc(C2c3[nH]c4ccc(Cl)cc4c3CC3C(=O)N(C4CCCC4)C(=S)N32)cc1 (centres unmarked) [Compound 109]
0.008 to 0.04 µM	COCCCN1C(=O)C2Cc3c([nH]c4ccc(Cl)cc34)C(c3ccc(OCCOC)cc3)N2C1=S (centres unmarked) [Compound 110]
< 0.008 µM	COCCOc1ccc(C2c3[nH]c4ccc(Br)cc4c3CC3C(=O)N(C4CCCCC4)C(=S)N32)cc1 (centres unmarked) [Compound 111]
< 0.008 µM	CN(C)CCCOc1ccc(C2c3[nH]c4ccc(Br)cc4c3CC3C(=O)N(C4CCCCC4)C(=S)N32)cc1 (centres unmarked) [Compound 112]
< 0.008 µM	O=C1C2Cc3c([nH]c4ccc(Cl)cc34)C(c3ccc(OCCN4CCOCC4)cc3)N2C(=S)N1C1CCCCC1 (centres unmarked) [Compound 113]
0.04 to 0.2 µM	CN(C)CCCOc1ccc(C2c3[nH]c4ccc(Cl)cc4c3CC3C(=O)N(C4CCCCC4)C(=S)N32)cc1 (centres unmarked) [Compound 114]

EC50	SMILES
< 0.008 µM	O=C1C2Cc3c([nH]c4ccc(Br)cc34)C(c3ccc(OCCN4CCOCC4)cc3)N2C(=S)N1C1CCCCC1 (centres unmarked) [Compound 115]
< 0.008 µM	COCCOc1ccc(C2c3[nH]c4ccc(Cl)cc4c3CC3C(=O)N(C4CCCCC4)C(=S)N32)cc1 (centres unmarked) [Compound 116]
0.04 to 0.2 µM	CC(C)N1C(=O)C2Cc3c([nH]c4ccc(Br)cc34)C(c3ccc(N4CCOCC4)cc3)N2C1=O (centres unmarked) [Compound 118]
0.2 to 1 µM	CC(C)N1C(=O)C2Cc3c([nH]c4ccc(Br)cc34)C(c3ccc(-c4ccncc4)cc3)N2C1=O (centres unmarked) [Compound 120]
0.04 to 0.2 µM	CC(C)N1C(=O)C2Cc3c([nH]c4ccc(Br)cc34)C(c3ccc(-c4cncnc4)cc3)N2C1=O (centres unmarked) [Compound 121]
0.2 to 1 µM	CC(C)N1C(=O)C2Cc3c([nH]c4ccc(Cl)cc34)C(c3ccc(N4CCOCC4)cc3)N2C1=O (centres unmarked) [Compound 122]
0.2 to 1 µM	CC(C)N1C(=O)C2Cc3c([nH]c4ccc(Cl)cc34)C(c3ccc(-n4ccnc4)cc3)N2C1=O (centres unmarked) [Compound 123]
0.04 to 0.2 µM	CC(C)N1C(=O)C2Cc3c([nH]c4ccc(Cl)cc34)C(c3ccc(N4CCN(C)CC4)cc3)N2C1=O (centres unmarked) [Compound 124]
0.2 to 1 µM	CC(C)N1C(=O)C2Cc3c([nH]c4ccc(Cl)cc34)C(c3ccc(-c4ccncc4)cc3)N2C1=O (centres unmarked) [Compound 125]
0.2 to 1 µM	CC(C)N1C(=O)C2Cc3c([nH]c4ccc(Cl)cc34)C(c3ccc(-c4cncnc4)cc3)N2C1=O (centres unmarked) [Compound 126]
< 0.008 µM	CC(C)N1C(=O)C2Cc3c([nH]c4ccc(Br)cc34)C(c3ccc(N4CCOCC4)cc3)N2C1=S (centres unmarked) [Compound 127]
0.008 to 0.04 µM	CC(C)N1C(=O)C2Cc3c([nH]c4ccc(Br)cc34)C(c3ccc(-n4ccnc4)cc3)N2C1=S (centres unmarked) [Compound 128]
0.008 to 0.04 µM	CC(C)N1C(=O)C2Cc3c([nH]c4ccc(Br)cc34)C(c3ccc(N4CCN(C)CC4)cc3)N2C1=S (centres unmarked) [Compound 129]
0.04 to 0.2 µM	CC(C)N1C(=O)C2Cc3c([nH]c4ccc(Br)cc34)C(c3ccc(-c4ccncc4)cc3)N2C1=S (centres unmarked) [Compound 130]
0.008 to 0.04 µM	CC(C)N1C(=O)C2Cc3c([nH]c4ccc(Br)cc34)C(c3ccc(-c4cncnc4)cc3)N2C1=S (centres unmarked) [Compound 131]
0.04 to 0.2 µM	CC(C)N1C(=O)C2Cc3c([nH]c4ccc(Cl)cc34)C(c3ccc(-n4ccnc4)cc3)N2C1=S (centres unmarked) [Compound 132]
0.04 to 0.2 µM	CC(C)N1C(=O)C2Cc3c([nH]c4ccc(Cl)cc34)C(c3ccc(N4CCN(C)CC4)cc3)N2C1=S (centres unmarked) [Compound 133]
0.008 to 0.04 µM	CC(C)N1C(=O)C2Cc3c([nH]c4ccc(Cl)cc34)C(c3ccc(-c4ccncc4)cc3)N2C1=S (centres unmarked) [Compound 134]
0.04 to 0.2 µM	CC(C)N1C(=O)C2Cc3c([nH]c4ccc(Cl)cc34)C(c3ccc(-c4cncnc4)cc3)N2C1=S (centres unmarked) [Compound 135]
0.04 to 0.2 µM	COC(=O)CN1C(=O)C2Cc3c([nH]c4ccc(Br)cc34)C(c3ccc(OC)cc3)N2C1=S (centres unmarked) [Compound 136]
0.008 to 0.04 µM	CCOC(=O)CN1C(=O)C2Cc3c([nH]c4ccc(Br)cc34)C(c3ccc(OC)cc3)N2C1=S (centres unmarked) [Compound 137]
< 0.008 µM	COc1ccc(C2c3[nH]c4ccc(Br)cc4c3CC3C(=O)N(c4ccc(Cl)cc4)C(=S)N32)cc1 (centres unmarked) [Compound 138]
